From US6593342B1, “Pharmaceutical compositions comprising 2-quinolones” (Laboratoire L. Lafon, priority 1998, dated 2003) come the findings set out here.

One data set concerns U-87MG. Kind of data set: MTT test, U-87MG. The class given is cell-based. The conditions noted are these: Homo sapiens, 10^−5 M, 72 hours, control = 100%, mean ± SEM, read-out: average optical density (MTT), percentage relative to control. How it is done: (§1) The influence of the compounds of formulae (I) and (Ia) on non-clonogenic cells was evaluated with the aid of the MTT calorimetric test.
(§2) The principle of the MTT test is based on the mitochondrial reduction, by the metabolically active live cells, of the yellow-colored product MTT (3-(4,5-dimethylthiazol-2-yl)-2,5-diphenyltetrazolium bromide) to a blue-colored product, formazan. The amount of formazan thus obtained is directly proportional to the amount of live cells present in the culture well(s). This amount of formazan is measured by spectrophotometry.
(§3) The cell lines are maintained as a monolayer culture at 37° C. in stoppered culture dishes containing MEM 25 MM HEPES (Minimum Essential Medium) base medium. This medium is suited to the growth of a range of various mammalian diploid or primary cells. This medium is then supplemented with:
(§4) an amount of 5% of FCS (Foetal Calf Serum) decomplemented at 56° C. for 1 hour,
(§5) 0.6 mg/ml of L-glutamine,
(§6) 200 μg/ml of streptomycin,
(§7) The 12 human cancer cell lines which were used were obtained from the American Type Culture Collection (ATCC, Rockville, Md., USA). These 12 cell lines are:
(§8) U-373MG (code ATCC: HTB-17) and U-87MG (code ATCC: HTB-14) which are two glioblastomas,
(§9) Experimentally: 100 μl of a cell suspension containing 20 000 to 50 000 (depending on the cell type used) cells/ml of culture medium are inoculated in 96-well flat-bottomed multi-well plates and are incubated at 37° C., under an atmosphere comprising 5% CO2 and 70% humidity. After incubation for 24 hours, the culture medium is replaced with 100 μl of fresh medium containing either the various test compounds at concentrations ranging from 10^−5 to 10^−10 M or the solvent used to dissolve the test products (control condition). After incubation for 72 hours under the above conditions, the culture medium is replaced with 100 μl of a yellowish solution of MTT dissolved at a rate of 1 mg/ml in RPMI 1640. The microplates are reincubated for 3 hours at 37° C. and are then centrifuged for 10 minutes at 400×g. The yellowish solution of MTT is removed and the blue formazan crystals formed in the cell are dissolved in 100 μl of DMSO. The microplates are then shaken for 5 minutes. The intensity of the resulting blue coloration, and thus of the conversion of the yellow product MTT into blue formazan by the cells that are still alive at the end of the experiment, is quantified by spectrophotometry using a Dynatech Immunoassay System machine at wavelengths of 570 nm and 630 nm corresponding, respectively, to the maximum absorption wavelengths of formazan and to the background noise. Software incorporated in the spectrophotometer calculates the average optical density values and the standard deviation (SD) and standard error of mean (SEM) values.
(§10) By way of example, the results of the average optical density, expressed as a percentage relative to the average optical density measured under the control condition (set equal to 100%), obtained at a concentration of 10^−5 M on the 12 abovementioned tumor cell lines are given in Table II.

Another data set deals with U-373MG. Kind of data set: MTT test, U-373MG. Conditions: Homo sapiens, U373 MG, 10^−5 M, 72 hours, control = 100%, mean ± SEM, read-out: average optical density (MTT), percentage relative to control. The class given is cell-based. The method, then: as §1, §2, §3, §4, §5, §6, §7, §8, §9, §10
In another data set the test system is SW1088. Put plainly: MTT test, SW1088. The class given is cell-based. The conditions noted are these: Homo sapiens, 10^−5 M, 72 hours, control = 100%, mean ± SEM, read-out: average optical density (MTT), percentage relative to control. How it is done:
as §1, §2, §3, §4, §5, §6, §7
SW1088 (code ATCC: HTB-12) which is an astrocytoma,
as §9, §10

The next data set deals with T24. Put plainly: MTT test, T24. Format: cell-based. Conditions: Homo sapiens, T-24, 10^−5 M, 72 hours, control = 100%, mean ± SEM, read-out: average optical density (MTT), percentage relative to control. How it is done: as §1, §2, §3, §4, §5, §6, §7
(§11) J82 (code ATCC: HTB-1) and T24 (code ATCC: HTB-4) which are two bladder cancers,
as §9, §10

The subject of the next data set is J82. Kind of data set: MTT test, J82. The class given is cell-based. Conditions: Homo sapiens, 10^−5 M, 72 hours, control = 100%, mean ± SEM, read-out: average optical density (MTT), percentage relative to control. How it is done: as §1, §2, §3, §4, §5, §6, §7, §11, §9, §10
A further data set has as its system HCT-15. Kind of data set: MTT test, HCT-15. Format: cell-based. Conditions: Homo sapiens, 10^−5 M, 72 hours, control = 100%, mean ± SEM, read-out: average optical density (MTT), percentage relative to control. How it is done:
as §1, §2, §3, §4, §5, §6, §7
(§12) HTC-15 (code ATCC: CCL-225) and LoVo (code ATCC: CCL-229) which are two colorectal cancers,
as §9, §10

The next data set has as its system LoVo. Kind of data set: MTT test, LoVo. Format: cell-based. Conditions: Homo sapiens, 10^−5 M, 72 hours, control = 100%, mean ± SEM, read-out: average optical density (MTT), percentage relative to control. The method, then:
as §1, §2, §3, §4, §5, §6, §7, §12, §9, §10

For a further data set, the system named is MCF7. Kind of data set: MTT test, MCF7. Conditions: Homo sapiens, 10^−5 M, 72 hours, control = 100%, mean ± SEM, read-out: average optical density (MTT), percentage relative to control. Format: cell-based. The method, then: as §1, §2, §3, §4, §5, §6, §7
(§13) T-47D (code ATCC: HTB-133) and MCF7 (code ATCC: HTB-22) which are two breast cancers,
as §9, §10

For another data set, the system named is T-47D. Kind of data set: MTT test, T-47D. The conditions noted are these: Homo sapiens, T47D, 10^−5 M, 72 hours, control = 100%, mean ± SEM, read-out: average optical density (MTT), percentage relative to control. The class given is cell-based. The method, then: as §1, §2, §3, §4, §5, §6, §7, §13, §9, §10
Another data set relates to A549. Put plainly: MTT test, A549. The class given is cell-based. Conditions: Homo sapiens, 10^−5 M, 72 hours, control = 100%, mean ± SEM, read-out: average optical density (MTT), percentage relative to control. How it is done:
as §1, §2, §3, §4, §5, §6, §7
(§14) A549 (code ATCC: CCL-185) and A-427 (code ATCC: HTB-53) which are two non-small-cell lung cancers,
as §9, §10

The subject of a further data set is A-427. Put plainly: MTT test, A-427. Format: cell-based. Conditions: Homo sapiens, 10^−5 M, 72 hours, control = 100%, mean ± SEM, read-out: average optical density (MTT), percentage relative to control. How it is done: as §1, §2, §3, §4, §5, §6, §7, §14, §9, §10
In a further data set the test system is PC-3. Put plainly: MTT test, PC-3. The class given is cell-based. Conditions: Homo sapiens, 10^−5 M, 72 hours, control = 100%, mean ± SEM, read-out: average optical density (MTT), percentage relative to control. How it is done:
as §1, §2, §3, §4, §5, §6, §7
PC-3 (code ATCC: CRL-1435) which is a prostate cancer.
as §9, §10

Data set [1] can be described thus: Determination of the maximum tolerated dose (MTD). The conditions noted are these: mouse, in vivo, ip; B6D2F1/Jico mice; single intraperitoneal administration, 2.5 to 160 mg/kg; survival over 14 days. How it is done:
3.—Determination of the Maximum Tolerated Dose (MTD):
The evaluation of the maximum tolerated dose was carried out on 4- to 6-week-old B6D2F1/Jico mice. The compounds were administered intraperitoneally at increasing doses graduating from 2.5 to 160 mg/kg. The value of the MTD (expressed in mg/kg) is determined from the observation of the survival rate of the animals over a 14-day period after a single administration of the product under consideration. The weight change of the animals is also monitored during this period. When the value of the MTD is greater than 160 mg/kg, the MTD value is likened to 160 mg/kg by default.
The results of the estimation of the maximum tolerated dose (MTD) are collated in the following table: […]

For `COc1ccc(-c2cc3c(OC)ccc(OC)c3nc2O)cc1` [CRL8336, 5,8-Dimethoxy-3-(4-methoxyphenyl)-1,2-dihydro-2-quinolinone], the viability at 10 µM with U-87MG turned out to be 82.3 ± 1.8%; with U-373MG, 82.3 ± 1.6%; in the data set with SW1088, 101 ± 4.3%; in the data set on T24, 88.2 ± 1.4%; in the data set on J82, 90.9 ± 0.9%; with HCT-15 it was 93.1 ± 3.2%. In addition, the viability at 10 µM with LoVo worked out at 92.6 ± 3.4%; in the data set on MCF7, 73.9 ± 0.7%; with T-47D it was 96.2 ± 2.9%; in the data set on A549, 114 ± 1.9%; with A-427, 87.9 ± 3.1%; in the data set with PC-3, 91.7 ± 1.5%. In data set [1], this compound yielded an MTD at 14 day above 160 mg/kg.

On to `COc1cccc2cc(-c3ccccc3)c(O)nc12` [CRL8339, 8-Methoxy-3-phenyl-1,2-dihydro-2-quinolinone], for which the viability at 10 µM in the data set on U-87MG is 69.1 ± 2.1%; in the data set with U-373MG, 73.6 ± 1.8%; in the data set on SW1088, 87.1 ± 2.6%; with T24 it was 87.4 ± 2%; in the data set on J82, 83.7 ± 0.6%; in the data set with HCT-15 it was 65.5 ± 2.2%. Further, the viability at 10 µM in the data set with LoVo came out at 74.4 ± 1.8%; in the data set with MCF7, 82.7 ± 3.5%; with T-47D, 81 ± 2.8%; in the data set on A549 it was 49.6 ± 2.2%; in the data set with A-427, 52.3 ± 2.3%; in the data set with PC-3, 84.3 ± 1.8%. In addition, the MTD at 14 day in [1] is above 160 mg/kg.

`COc1ccc(-c2cc3c(OC)cc(OC)cc3nc2OC)cc1` [Compound 7a, 2,5,7-Trimethoxy-3-(4-methoxyphenyl)quinoline] registered a melting point of 106 to 107 °C.

In the case of `CCOC(=O)COc1nc2cc(OC)cc(OC)c2cc1-c1ccc(OC)cc1` [Compound 11a, Ethyl 2-([5,7-Dimethoxy-3-(4-methoxyphenyl)-2-quinolinyl]oxy)acetate], the melting point is 95 to 96 °C.

Turning to `COc1ccc(-c2cc3c(OC)cc(OC)cc3nc2OCC(=O)OCc2ccccc2)cc1` [Compound 13a, Benzyl 2-([5,7-Dimethoxy-3-(4-methoxyphenyl)-2-quinolinyl]oxy)acetate], the melting point was in the range of 114 to 115 °C.

Take `CCN(CC)C(=O)COc1nc2cc(OC)cc(OC)c2cc1-c1ccc(OC)cc1` [Compound 18a, N,N-Diethyl-2-([5,7-dimethoxy-3-(4-methoxyphenyl)-2-quinolinyl]oxy)acetamide]: the melting point was 146 to 147 °C.

With `COc1ccc(-c2cc3c(OC)cc(OC)cc3nc2OCC#N)cc1` [Compound 19a, 2-([5,7-Dimethoxy-3-(4-methoxyphenyl)-2-quinolinyl]oxy)acetonitrile], the melting point lay within 149 to 150 °C.

Consider `COc1ccc(-c2cc3c(OC)cc(OC)cc3nc2OCCCN(C)C)cc1` [Compound 22a], for which the melting point is 54 to 55 °C.

In turn, `COc1ccc(-c2cc3c(OC)cc(OC)cc3nc2OCCN(C)C)cc1` [Compound 23a, N,N-Dimethyl-2-[5,7-dimethoxy-3-(4-methoxyphenyl)-2-quinolyl]oxy-1-ethanamine] yielded a melting point of 49 to 50 °C.

`COc1ccc2[nH]c(=O)c(-c3ccccc3)cc2c1` [Compound 44, 6-Methoxy-3-phenyl-1,2-dihydro-2-quinolinone] had a melting point of 243 to 244 °C.

The compound `COc1cc(OC)c2cc(-c3ccc(OS(=O)(=O)C(F)(F)F)cc3)c(=O)n(C)c2c1` [Compound 45] returned a melting point of 144 to 145 °C.

In turn, `Cc1ccc2[nH]c(=O)c(-c3ccccc3)cc2c1` [Compound 48, 6-Methyl-3-phenyl-1,2-dihydro-2-quinolinone] registered a melting point of 212 to 213 °C.
